The record followed here is patent US9643917B2, “Water-soluble propofol derivatives and uses thereof” (JIANGSU NHWALUOKANG PHARMCEUTICAL RESEARCH AND DEVELOPMENT …, priority 2014, dated 2017).

The conditions of series [1]: rabbit plasma, 37° C., HPLC.
Description: (§1) 0.1 ml samples were taken from each of the solutions, added respectively to 1 ml of blood plasma of rabbit (taken from New Zealand white rabbits, treated according to conventional methods, anticoagulated with heparin) or 1 ml of blood plasma of rat (taken from live SD rats, processed according to conventional methods, anti coagulated with heparin), homogeneously mixed, and placed in a thermostatic water bath at 37° C. for incubation with time being recorded. Samples were taken at different time points after the experiment began, and 2 ml of acetonitrile was immediately added. The samples were shaken and centrifuged for 5 min (15,000 rpm), and the supernatant was then taken for HPLC analysis.
The conditions of series [2]: rat plasma, 37° C., HPLC.
Description: as §1
Another series concerns KM mice. Particulars: for TI Mouse: TI=LD50/ED50, mouse; for Mouse ED50: disappearance of righting reflex, caudal vein injection.
The test system of the next series is SD rats. As to conditions: for TI Rat: TI=LD50/ED50, rat; for Rat ED50: disappearance of righting reflex, caudal vein injection.
Another series has as its system Kunming mice. As to conditions: tail intravenous injection, n = 5.
Series [3] has as its system New Zealand White rabbits. As to conditions: TI=LD50/ED50, rabbit.
Description: (§2) Test samples for the experiment on rabbit were formulated to have corresponding concentrations based on the results from a preliminary test. […] Rats and mice were administered with samples having a fixed concentration of drugs, while the volume of administration altered according to actual situation. The volume of administration to rabbits was 1 mL/kg body weight.
(§3) ED50 and LD50 values concerning anesthesia were determined using a sequential method. Healthy KM mice (male), SD rats (male) and New Zealand White rabbits were used for test. […] For rabbits, the compounds were administered by injection at a constant rate via ear vein for 30 seconds. Before the test, a preliminary test was conducted to determine an approximate dosage (volume of administration) that leads to anesthetization (or death) of animals, which was set as the middle dosage in the formal test. […] The disappearance of righting reflex or death was used as indicators of pharmacological efficacy or toxicity, respectively. The formal test began with the administration of the middle dosage. If animals were anesthetized, a lower dosage was administered; if animals were not anesthetized, a higher dosage was administered, until the cycle was repeated for 3-4 times. LD50 and ED50 were calculated by a sequential method aot425 software. TI was calculated according to the following equation: TI=LD50/ED50.
Series [4] is described as follows: in vivo. Particulars: male, KM, mouse, intravenous, caudal vein injection, confirmation test.
Description: as §2, §3
Series [5] is described as follows: in vivo. Particulars: male, SD, rat, intravenous, caudal vein injection.
Description: as §2, §3
Where [6] appears, read: 3 mg/ml solution, confirmation test.
[7] abbreviates: 3 mg/ml solution, first test (*).
Where [8] appears, read: 6 mg/ml solution, confirmation test.
The mark [9] stands for this setting: 6 mg/ml solution, first test (*).
Setting [10] is: dosage 2 * ED50, 3 mg/ml solution.
[11] abbreviates: dosage 2 * ED50, 6 mg/ml solution.

SMILES strings stand for the structures. Like-named read-outs stand apart in the source and are kept apart here. Marks after values point to notes of the source that are not given here.

Description for KM mice: as §2, §3
Description for Kunming mice: Rats and mice were administered with samples having a fixed concentration of drugs, while the volume of administration altered according to actual situation. The volume of administration to rabbits was 1 mL/kg body weight.
The periods during which the righting reflex of mice disappeared (latent period) and recovered (persistent period) were recorded.
Description for SD rats: as §2, §3

For `CC(C)NCC(CF)C(=O)Oc1c(C(C)C)cccc1C(C)C.CS(=O)(=O)O` (racemic) [E6, propofol 3-N-isopropylamino-2-(R,S)-2-monofluoromethylpropionate methanesulfonate], in series [1], the “Dissociation percent 15 s” value was found to be 27.1% and the “Dissociation percent 30 s” value came to 44.3%. Further, in series [2], the “Dissociation percent 5 s” value was determined as 24.2% and the “Dissociation percent 15 s” value turned out to be 40.1%.
Regarding `CC(C)c1cccc(C(C)C)c1OC(=O)[C@@H](F)CCOP(=O)([O-])[O-].[Na+].[Na+]` [G2, {1-[4-(2,6-diisopropylphenoxy)-4-oxo-3-(S)-3-fluoro-1-butyl]} phosphate monoester disodium salt], the entries for the “Dissociation percent 15 s” value in series [1] and in series [2] were 37.2% and 69.7%, respectively. Moreover, the “Dissociation percent 30 s” value in series [1] is listed as 54.3%. In series [2], the “Dissociation percent 5 s” value is reported as 48.5%. Moreover, the “TI Mouse” value was 3.0 with KM mice (setting [6]), 2.8* in the series on KM mice (setting [7]), 2.3 in the series on KM mice (setting [8]) and 1.9* with KM mice (setting [9]). The “Mouse ED50” value in the series on KM mice (setting [6]) is recorded as 19.8 mg/kg; with KM mice (setting [7]), 23.7 mg/kg; in the series with KM mice (setting [8]) it was 22.8 mg/kg; in the series on KM mice (setting [9]), 25.6 mg/kg. The “TI Rat” value was 3.3 with SD rats (3 mg/ml solution) and 2.8 in the series on SD rats (6 mg/ml solution). Further, the “Rat ED50” value in the series on SD rats (6 mg/ml solution) is 21.1 mg/kg. Further, the “Latent Period” value came out at 16.3 ± 0.8 s with Kunming mice (setting [10]) and 15.7 ± 2.3 s in the series on Kunming mice (setting [11]). Besides, the Persistent period is given as 383.6 ± 242.1 s with Kunming mice (setting [10]) and 571 ± 173 s in the series with Kunming mice (setting [11]).
For `CC(C)c1cccc(C(C)C)c1OC(=O)[C@H](F)CCN1CCCC1.Cl` [E8, propofol 4-(pyrrolidin-1-yl)-2-(R)-2-fluorobutyrate hydrochloride], in series [1], the “Dissociation percent 15 s” value stood at 91.1% and the “Dissociation percent 30 s” value is given as 98.2%. For the same compound, the “Dissociation percent 5 s” value in series [2] amounted to 95.6%.
On to `CC(C)c1cccc(C(C)C)c1OC(=O)C(F)CCCC(=O)[O-].CC(C)c1cccc(C(C)C)c1OC(=O)C(F)CCCC(=O)[O-].[Zn+2]` [F5, di[propofol 5-carboxyl-2-(S)-fluorohexanoate] zinc salt], for which, in series [1], the “Dissociation percent 15 s” value amounted to 34.9% and the “Dissociation percent 30 s” value was 58.8%. In series [2], the “Dissociation percent 5 s” value is 63.2% and the “Dissociation percent 15 s” value was determined as 80.3%.
As for `CC(C)c1cccc(C(C)C)c1OC(=O)C(F)C(=O)[O-].[Na+]` [F8, Propofol-2-(R)-fluoropropionate monoester sodium salt], in series [1], the “Dissociation percent 15 s” value is listed as 41.2% and the “Dissociation percent 30 s” value was found to be 70.4%. Further, in series [2], the “Dissociation percent 5 s” value was 55.5%, the “Dissociation percent 15 s” value is 69.3% and the “Dissociation percent 30 s” value is given as 83.3%.
As to `CC(C)c1cccc(C(C)C)c1OC(=O)C(CCC(=O)[O-])C(F)(F)F.[Li+]` [F3, propofol 4-carboxyl-2-(R)-2-trifluoromethyl valerate lithium salt], in series [1], the “Dissociation percent 15 s” value is listed as 28.4% and the “Dissociation percent 30 s” value is on record as 47.9%. Further, the “Dissociation percent 5 s” value in series [2] came to 47.4%.
`CC(C)c1cccc(C(C)C)c1OC(=O)[C@H](F)CCN(C)C.Cl` [E2, Propofol 4-(N,N-dimethyl)amino-2-(R)-fluorobutyrate hydrochloride]: the “Dissociation percent 15 s” value in series [1] is given as 97.7%. For the same compound, the “Dissociation percent 30 s” value in series [1] came out at 100%. Further, in series [2], the “Dissociation percent 5 s” value is recorded as 100%. For the same compound, the “TI Mouse” value in the series with KM mice (setting [6]) is 3; with KM mice (setting [7]), 4*; with KM mice (setting [8]), 3.7; in the series with KM mice (setting [9]) it was 3.6*. The “Mouse ED50” value in the series with KM mice (setting [6]) stood at 15.4 mg/kg; in the series with KM mice (setting [7]) it was 17.9 mg/kg; in the series on KM mice (setting [8]) it was 13.0 mg/kg; in the series with KM mice (setting [9]), 15.2 mg/kg. Further, the “TI Rat” value in the series on SD rats (3 mg/ml solution) worked out at 3.8; in the series with SD rats (6 mg/ml solution) it was 3.1. Also, the results for the “Rat ED50” value in the series on SD rats (3 mg/ml solution) and in the series on SD rats (6 mg/ml solution) were 9.8 mg/kg and 10.1 mg/kg, respectively. In series [3], this compound displayed a TI index of 3.5. In addition, the “Latent Period” value is 14.6 ± 0.9 s with Kunming mice (setting [10]) and 14.2 ± 1.9 s in the series on Kunming mice (setting [11]). For the same compound, the results for the Persistent period with Kunming mice (setting [10]) and in the series on Kunming mice (setting [11]) were 383.6 ± 242.1 s and 543 ± 231 s, respectively.
Regarding `CC(C)c1cccc(C(C)C)c1OC(=O)[C@@H](CCOP(=O)([O-])[O-])C(F)(F)F.[Li+].[Li+]` [G3, {1-[4-(2,6-diisopropylphenoxy)-4-oxo-3-(R)-3-trifluoromethyl-1-butyl]} phosphate monoester dilithium salt], in series [1], the “Dissociation percent 15 s” value is 21.7% and the “Dissociation percent 30 s” value amounted to 43.6%. Also, the “Dissociation percent 5 s” value in series [2] is recorded as 38.7%.
Taken in the same sequence, the figures for `CC(C)c1cccc(C(C)C)c1OC(=O)[C@@H](F)CCN1CC1.Cl` [E7, propofol 4-(aziridin-1-yl)-2-(S)-2-fluorobutyrate hydrochloride] were 89.4%, 94.4% and 92.3%.
For the compound `CC(C)c1cccc(C(C)C)c1OC(=O)C(F)CCC(=O)[O-].[K+]` [F2, propofol 4-carboxyl-2-(S)-fluorovalerate potassium salt], in series [1], the “Dissociation percent 15 s” value turned out to be 73.4% and the “Dissociation percent 30 s” value is recorded as 94.8%. The “Dissociation percent 5 s” value in series [2] is on record as 92.3%.
In the case of `CC(C)c1cccc(C(C)C)c1OC(=O)C(CF)CP(=O)([O-])[O-].CC(C)c1cccc(C(C)C)c1OC(=O)C(CF)CP(=O)([O-])[O-].CC(C)c1cccc(C(C)C)c1OC(=O)C(CF)CP(=O)([O-])[O-].[Al+3].[Al+3]` (racemic) [G6, tri[propofol 3-phosphoryl-2-(R,S)-2-monofluoromethylpropionate] dialuminum salt], in series [1], the “Dissociation percent 15 s” value is recorded as 27.1% and the “Dissociation percent 30 s” value is listed as 44.3%. In addition, in series [2], the “Dissociation percent 5 s” value is listed as 22.1% and the “Dissociation percent 15 s” value is on record as 39.7%.
For the compound `CC(C)c1cccc(C(C)C)c1O` [Propofol, 2,6-diisopropylphenol], the “TI Mouse” value in the series with KM mice (setting [6]) is 4.9; in the series on KM mice (setting [8]), 3.8. In addition, the “TI Rat” value with SD rats (3 mg/ml solution) came out at 5.5; in the series on SD rats (6 mg/ml solution) it was 4.9. In addition, the LD50 in “in vivo [4]” (3 mg/ml solution) is 38.4 mg/kg; in “in vivo [4]” (6 mg/ml solution), 42.9 mg/kg; in the series “in vivo [5]” (3 mg/ml solution), 21.5 mg/kg; in “in vivo [5]” (6 mg/ml solution) it was 17.4 mg/kg.
Consider `CC(C)c1cccc(C(C)C)c1OC(=O)[C@@H](F)CCCN(C)Cc1ccccc1.Cl` [E5, propofol 5-N-methyl-N-benzylamino-2-(S)-2-fluorovalerate hydrochloride], for which, in series [1], the “Dissociation percent 15 s” value turned out to be 48.4% and the “Dissociation percent 30 s” value is 69.7%. For the same compound, in series [2], the “Dissociation percent 5 s” value is listed as 72.3% and the “Dissociation percent 15 s” value is given as 97.3%.
On to `CC(C)c1cccc(C(C)C)c1OC(=O)C(F)CCCCCC(=O)[O-].CC(C)c1cccc(C(C)C)c1OC(=O)C(F)CCCCCC(=O)[O-].[Ca+2]` (racemic) [F4, di[propofol 7-carboxyl-2-(R,S)-fluorocaprylate] calcium salt], for which, in series [1], the “Dissociation percent 15 s” value was 48.3% and the “Dissociation percent 30 s” value came to 61.7%. Moreover, in series [2], the “Dissociation percent 5 s” value was determined as 63.8%.
Taken in the same sequence, the figures for `CC(C)c1cccc(C(C)C)c1OC(=O)[C@@H](CCN(C)C)C(F)(F)F.Cl` [E3, propofol 4-N,N-dimethylamino-2-(R)-2-trifluoromethylbutyrate hydrochloride] were 51.7%, 67.2% and 77.5%.
Regarding `CC(C)c1cccc(C(C)C)c1OC(=O)C(F)CCOP(=O)([O-])[O-].[K+].[K+]` (racemic) [G1, {1-[4-(2,6-diisopropylphenoxy)-4-oxo-3-(R,S)-3-fluoro-1-butyl]} phosphate monoester dipotassium salt], in series [1], the “Dissociation percent 15 s” value is listed as 43.7% and the “Dissociation percent 30 s” value is reported as 68.7%. In series [2], the “Dissociation percent 5 s” value turned out to be 54.1%, the “Dissociation percent 15 s” value amounted to 67.4% and the “Dissociation percent 30 s” value stood at 86.9%.
As for `CCN(C)CCC(F)C(=O)Oc1c(C(C)C)cccc1C(C)C.Cl` (racemic) [E4, propofol 4-N-methyl-N-ethylamino-2-(R,S)-2-fluorobutyrate hydrochloride], in series [1], the “Dissociation percent 15 s” value was found to be 58.3% and the “Dissociation percent 30 s” value was 70.4%. Moreover, in series [2], the “Dissociation percent 5 s” value turned out to be 70.2%.
For `CC(C)c1cccc(C(C)C)c1OC(=O)C(CF)CCCCCCC(=O)[O-].CC(C)c1cccc(C(C)C)c1OC(=O)C(CF)CCCCCCC(=O)[O-].CC(C)c1cccc(C(C)C)c1OC(=O)C(CF)CCCCCCC(=O)[O-].[Al+3]` (racemic) [F6, tri[propofol 8-carboxyl-2-(R,S)-monofluoromethylpelargonate] aluminum salt], in series [1], the “Dissociation percent 15 s” value came out at 37.1% and the “Dissociation percent 30 s” value is listed as 58.3%. Moreover, in series [2], the “Dissociation percent 5 s” value is 34.2% and the “Dissociation percent 15 s” value is given as 55.7%.
